For orientation: IC50 means the concentration at which inhibition is half-maximal.

We go through 60 compounds from ChEMBL document CHEMBL1208672, “Novel 8-arylated purines as inhibitors of glycogen synthase kinase” (Eur J Med Chem, 2010).

SMILES strings stand for the structures.

Assay [1] concerns the target T1, Cyclin-dependent kinase 5/CDK5 activator 1 (Homo sapiens) (UniProt Q00535+Q15078). In words: Inhibition of CDK5/p25 assessed as residual activity at 1 uM relative to control. Type of assay: protein-complex assay.
Assay [2] addresses Glycogen synthase kinase-3 alpha (Homo sapiens) (UniProt P49840). Put plainly: Inhibition of human GSK3alpha assessed as residual activity at 1 uM relative to control.
Assay [3] has as its target T2, Glycogen synthase kinase-3 beta (Homo sapiens, UniProt P49841).
Target sequence in this assay (P49841 whole entry): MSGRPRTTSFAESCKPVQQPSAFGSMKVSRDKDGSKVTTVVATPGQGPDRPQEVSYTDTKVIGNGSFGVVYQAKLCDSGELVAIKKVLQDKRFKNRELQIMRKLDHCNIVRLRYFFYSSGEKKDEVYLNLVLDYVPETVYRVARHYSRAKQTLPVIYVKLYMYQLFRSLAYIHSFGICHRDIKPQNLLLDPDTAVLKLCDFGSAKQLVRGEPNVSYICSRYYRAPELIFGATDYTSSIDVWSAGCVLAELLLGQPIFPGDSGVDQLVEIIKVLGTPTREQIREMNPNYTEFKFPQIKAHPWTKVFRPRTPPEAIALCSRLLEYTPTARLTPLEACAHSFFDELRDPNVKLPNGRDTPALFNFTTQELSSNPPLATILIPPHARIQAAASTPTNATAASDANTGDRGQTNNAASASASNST
The target of assay [4] is Mitogen-activated protein kinase 3 (Homo sapiens) (UniProt P27361). Put plainly: Inhibition of ERK1 at 10 uM relative to control. The arrangement: scale not given: the % may be the effect or the level left.
In assay [5] the target is Mitogen-activated protein kinase 8 (Homo sapiens) (UniProt P45983). Put plainly: Inhibition of JNK1 assessed as residual activity at 10 uM relative to control.
Assay [6] addresses Casein kinase I isoform alpha (Homo sapiens) (UniProt P48729). Put plainly: Inhibition of CK1alpha1 assessed as residual activity at 10 uM relative to control.
In assay [7] the target is Epidermal growth factor receptor (Homo sapiens) (UniProt P00533). In words: Inhibition of EGFR assessed as residual activity at 10 uM relative to control.
Sequence of Epidermal growth factor receptor (Homo sapiens) (P00533 whole entry): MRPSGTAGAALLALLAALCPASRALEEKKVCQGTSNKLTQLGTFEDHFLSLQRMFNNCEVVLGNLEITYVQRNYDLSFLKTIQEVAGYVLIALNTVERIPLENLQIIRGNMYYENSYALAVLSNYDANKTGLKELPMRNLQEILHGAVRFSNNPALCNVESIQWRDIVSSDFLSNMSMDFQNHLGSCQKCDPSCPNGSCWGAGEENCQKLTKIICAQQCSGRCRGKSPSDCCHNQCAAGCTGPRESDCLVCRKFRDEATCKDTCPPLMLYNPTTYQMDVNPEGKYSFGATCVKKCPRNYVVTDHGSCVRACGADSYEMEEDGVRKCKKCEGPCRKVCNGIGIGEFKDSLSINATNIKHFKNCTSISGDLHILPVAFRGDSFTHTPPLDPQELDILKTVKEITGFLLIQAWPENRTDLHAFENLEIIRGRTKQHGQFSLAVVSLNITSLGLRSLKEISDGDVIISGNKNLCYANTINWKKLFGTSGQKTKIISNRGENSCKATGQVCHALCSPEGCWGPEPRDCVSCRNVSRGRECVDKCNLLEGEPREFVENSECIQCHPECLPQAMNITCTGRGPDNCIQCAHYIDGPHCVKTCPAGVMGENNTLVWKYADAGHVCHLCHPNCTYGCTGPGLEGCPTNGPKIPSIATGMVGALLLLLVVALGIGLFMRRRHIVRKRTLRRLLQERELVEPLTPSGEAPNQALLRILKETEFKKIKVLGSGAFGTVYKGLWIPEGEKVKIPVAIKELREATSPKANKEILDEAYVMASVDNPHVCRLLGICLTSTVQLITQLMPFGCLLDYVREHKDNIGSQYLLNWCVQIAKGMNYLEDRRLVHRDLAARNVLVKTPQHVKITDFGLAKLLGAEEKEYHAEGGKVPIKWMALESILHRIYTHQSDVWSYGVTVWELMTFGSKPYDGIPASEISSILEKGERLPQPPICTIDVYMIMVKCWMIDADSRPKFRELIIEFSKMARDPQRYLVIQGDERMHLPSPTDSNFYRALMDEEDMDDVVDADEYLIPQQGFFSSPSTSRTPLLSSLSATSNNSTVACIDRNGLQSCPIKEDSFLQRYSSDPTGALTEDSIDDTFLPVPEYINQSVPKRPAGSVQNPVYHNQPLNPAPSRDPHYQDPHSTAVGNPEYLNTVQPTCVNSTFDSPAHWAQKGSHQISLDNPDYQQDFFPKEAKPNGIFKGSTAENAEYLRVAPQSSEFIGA
Assay [8] addresses MAP kinase-activated protein kinase 2 (Homo sapiens) (UniProt P49137). Put plainly: Inhibition of MAPKAPK2 assessed as residual activity at 10 uM relative to control.
Assay [9] addresses Insulin-like growth factor 1 receptor (Homo sapiens) (UniProt P08069). In words: Inhibition of IGF1R assessed as residual activity at 10 uM relative to control.
The target in assay [10] is Casein kinase II subunit alpha (Homo sapiens) (UniProt P68400). In words: Inhibition of CK2alpha assessed as residual activity at 10 uM relative to control.
Sequence of Casein kinase II subunit alpha (Homo sapiens) (P68400 whole entry, looked up): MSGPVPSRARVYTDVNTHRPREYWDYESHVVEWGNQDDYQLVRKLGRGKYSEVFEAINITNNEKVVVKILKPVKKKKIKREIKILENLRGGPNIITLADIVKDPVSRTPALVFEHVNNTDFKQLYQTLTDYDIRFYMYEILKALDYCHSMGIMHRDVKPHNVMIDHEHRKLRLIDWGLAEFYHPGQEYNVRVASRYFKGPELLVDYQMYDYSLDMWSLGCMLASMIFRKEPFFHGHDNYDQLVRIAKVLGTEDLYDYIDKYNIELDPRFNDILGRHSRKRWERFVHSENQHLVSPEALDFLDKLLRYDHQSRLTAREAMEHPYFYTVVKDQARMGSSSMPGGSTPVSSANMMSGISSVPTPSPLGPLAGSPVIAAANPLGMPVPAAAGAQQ
The target in assay [11] is T3, Tyrosine-protein kinase receptor TYRO3 (Homo sapiens) (UniProt Q06418).
T3 sequence (whole entry): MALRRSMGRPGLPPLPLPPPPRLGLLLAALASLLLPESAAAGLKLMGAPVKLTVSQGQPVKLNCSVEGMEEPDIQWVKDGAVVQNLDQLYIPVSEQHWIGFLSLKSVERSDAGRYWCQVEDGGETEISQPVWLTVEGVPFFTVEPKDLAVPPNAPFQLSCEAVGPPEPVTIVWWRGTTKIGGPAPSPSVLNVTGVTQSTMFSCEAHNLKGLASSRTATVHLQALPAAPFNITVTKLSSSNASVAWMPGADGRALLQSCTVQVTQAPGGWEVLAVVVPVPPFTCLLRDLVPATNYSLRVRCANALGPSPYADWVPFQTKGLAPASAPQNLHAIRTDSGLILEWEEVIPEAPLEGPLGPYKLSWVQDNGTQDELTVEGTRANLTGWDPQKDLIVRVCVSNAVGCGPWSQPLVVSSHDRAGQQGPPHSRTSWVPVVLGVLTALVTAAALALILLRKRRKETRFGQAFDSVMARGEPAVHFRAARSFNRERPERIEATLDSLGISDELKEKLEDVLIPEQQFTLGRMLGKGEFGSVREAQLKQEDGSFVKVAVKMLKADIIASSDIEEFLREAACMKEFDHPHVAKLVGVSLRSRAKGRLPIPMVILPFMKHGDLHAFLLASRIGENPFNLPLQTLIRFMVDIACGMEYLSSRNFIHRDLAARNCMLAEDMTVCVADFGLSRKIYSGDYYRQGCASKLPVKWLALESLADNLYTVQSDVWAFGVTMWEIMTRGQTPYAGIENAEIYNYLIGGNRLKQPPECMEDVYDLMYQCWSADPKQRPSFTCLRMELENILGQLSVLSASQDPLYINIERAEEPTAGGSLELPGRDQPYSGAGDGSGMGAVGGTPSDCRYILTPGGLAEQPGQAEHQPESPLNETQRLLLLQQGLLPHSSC
Put plainly: Inhibition of TYRO3/SKY assessed as residual activity at 10 uM relative to control.

In assay [12] the target is T1, Cyclin-dependent kinase 5/CDK5 activator 1 (Homo sapiens). In words: Inhibition of CDK5/p25 assessed as residual activity at 10 uM relative to control. Type of assay: protein-complex assay.
The target in assay [13] is T2, Glycogen synthase kinase-3 beta. Put plainly: Inhibition of human GSK3-beta assessed as residual activity at 10 uM relative to control.
Target sequence in this assay (P49841 whole entry, looked up): as the sequence (P49841 whole entry) above

T1 sequence (Q00535 whole entry): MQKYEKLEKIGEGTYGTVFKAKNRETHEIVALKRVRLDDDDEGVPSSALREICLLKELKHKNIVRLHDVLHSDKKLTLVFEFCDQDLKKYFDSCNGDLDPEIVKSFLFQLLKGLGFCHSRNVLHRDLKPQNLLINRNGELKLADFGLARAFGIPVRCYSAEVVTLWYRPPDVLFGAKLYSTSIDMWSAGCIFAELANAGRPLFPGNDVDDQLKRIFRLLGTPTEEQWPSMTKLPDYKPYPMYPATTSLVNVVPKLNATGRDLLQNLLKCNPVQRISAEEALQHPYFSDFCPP
T1 sequence (Q15078 99-307 partner limits assumed): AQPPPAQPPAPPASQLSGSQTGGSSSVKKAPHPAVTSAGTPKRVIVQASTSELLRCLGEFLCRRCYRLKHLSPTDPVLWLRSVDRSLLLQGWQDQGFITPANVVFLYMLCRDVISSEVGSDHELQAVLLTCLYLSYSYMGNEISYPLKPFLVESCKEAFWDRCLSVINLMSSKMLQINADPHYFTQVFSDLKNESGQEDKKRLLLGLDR
Sequence of Glycogen synthase kinase-3 alpha (Homo sapiens) (P49840 2-483 limits assumed): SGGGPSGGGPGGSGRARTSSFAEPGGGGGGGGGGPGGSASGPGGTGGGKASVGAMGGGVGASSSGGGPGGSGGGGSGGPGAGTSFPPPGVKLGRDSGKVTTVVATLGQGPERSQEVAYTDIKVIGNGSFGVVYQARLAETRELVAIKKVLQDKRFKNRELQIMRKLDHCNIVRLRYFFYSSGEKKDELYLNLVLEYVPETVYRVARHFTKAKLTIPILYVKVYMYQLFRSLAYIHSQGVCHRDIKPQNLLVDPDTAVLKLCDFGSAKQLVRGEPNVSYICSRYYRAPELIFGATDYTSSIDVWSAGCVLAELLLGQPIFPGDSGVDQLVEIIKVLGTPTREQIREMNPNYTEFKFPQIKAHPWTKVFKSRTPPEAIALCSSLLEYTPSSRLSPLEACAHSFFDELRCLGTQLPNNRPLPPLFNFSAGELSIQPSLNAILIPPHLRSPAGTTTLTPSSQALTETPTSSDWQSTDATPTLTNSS
Sequence of Casein kinase I isoform alpha (Homo sapiens) (P48729 2-337 limits assumed): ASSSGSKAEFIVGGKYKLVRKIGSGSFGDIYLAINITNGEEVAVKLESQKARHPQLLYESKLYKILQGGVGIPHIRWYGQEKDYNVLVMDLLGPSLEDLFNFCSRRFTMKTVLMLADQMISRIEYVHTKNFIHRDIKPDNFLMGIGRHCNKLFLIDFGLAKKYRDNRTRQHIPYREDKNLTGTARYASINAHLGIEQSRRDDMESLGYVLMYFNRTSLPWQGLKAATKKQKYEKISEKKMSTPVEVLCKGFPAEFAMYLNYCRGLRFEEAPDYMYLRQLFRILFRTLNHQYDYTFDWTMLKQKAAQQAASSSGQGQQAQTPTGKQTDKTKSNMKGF
Sequence of Insulin-like growth factor 1 receptor (Homo sapiens) (P08069 31-736 limits assumed): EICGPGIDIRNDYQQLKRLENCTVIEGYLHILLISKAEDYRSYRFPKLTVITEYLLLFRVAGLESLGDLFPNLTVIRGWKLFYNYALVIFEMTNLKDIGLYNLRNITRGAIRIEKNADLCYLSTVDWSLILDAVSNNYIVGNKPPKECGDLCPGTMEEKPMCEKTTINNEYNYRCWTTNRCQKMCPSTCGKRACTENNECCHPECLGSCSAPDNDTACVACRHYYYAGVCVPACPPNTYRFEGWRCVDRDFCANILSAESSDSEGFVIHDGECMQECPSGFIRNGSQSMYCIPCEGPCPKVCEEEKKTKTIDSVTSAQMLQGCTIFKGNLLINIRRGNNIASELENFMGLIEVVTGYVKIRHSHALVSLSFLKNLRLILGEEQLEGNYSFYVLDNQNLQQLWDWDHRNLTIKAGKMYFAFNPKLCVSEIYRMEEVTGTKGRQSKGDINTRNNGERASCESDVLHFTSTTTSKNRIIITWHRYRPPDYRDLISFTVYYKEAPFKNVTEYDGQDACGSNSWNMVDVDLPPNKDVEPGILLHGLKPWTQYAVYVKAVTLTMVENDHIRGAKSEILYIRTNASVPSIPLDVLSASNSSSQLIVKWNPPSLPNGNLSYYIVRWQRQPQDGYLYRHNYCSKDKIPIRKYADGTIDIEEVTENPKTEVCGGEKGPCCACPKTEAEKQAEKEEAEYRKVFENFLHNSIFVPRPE
Sequence of Insulin-like growth factor 1 receptor (Homo sapiens) (P08069 741-1367 limits assumed): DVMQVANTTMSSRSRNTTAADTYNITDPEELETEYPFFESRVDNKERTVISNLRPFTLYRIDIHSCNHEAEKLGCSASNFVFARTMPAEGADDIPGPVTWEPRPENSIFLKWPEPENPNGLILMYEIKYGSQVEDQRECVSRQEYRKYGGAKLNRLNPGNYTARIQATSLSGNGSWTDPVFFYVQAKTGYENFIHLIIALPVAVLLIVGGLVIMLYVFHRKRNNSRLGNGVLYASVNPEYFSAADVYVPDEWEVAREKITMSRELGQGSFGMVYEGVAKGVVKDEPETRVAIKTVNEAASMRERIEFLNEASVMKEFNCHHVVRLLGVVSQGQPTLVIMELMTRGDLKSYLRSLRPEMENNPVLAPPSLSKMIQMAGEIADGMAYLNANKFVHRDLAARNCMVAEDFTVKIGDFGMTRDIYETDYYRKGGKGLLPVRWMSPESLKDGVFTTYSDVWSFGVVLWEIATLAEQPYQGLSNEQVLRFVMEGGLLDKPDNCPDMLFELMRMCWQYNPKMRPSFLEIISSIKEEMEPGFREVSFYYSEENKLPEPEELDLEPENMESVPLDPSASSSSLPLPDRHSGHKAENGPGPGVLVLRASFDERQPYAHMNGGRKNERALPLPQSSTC

Take `CN(C)c1ncnc2[nH]c(-c3ccccc3)nc12`: in [1], the Activity was 85%.

Take `Cn1c(-c2ccccc2)nc2c(NCc3cccnc3)ncnc21`: in assay [1], the Activity stood at 99%.

On to `Cn1c(-c2cccc(F)c2)nc2c(NC(=O)C3CC3)ncnc21`, for which the Activity in [1] is 99%.

In the case of `C(=C\c1nc2c(N3CCCC3)ncnc2[nH]1)/c1ccccc1`, the figures for the Activity in assay [1] and in [2] were 101% and 87%, respectively.

`c1ccc(Nc2ncnc3nc(-c4ccccc4)[nH]c23)cc1` returned an IC50 in assay [3] of 16 nM.

Regarding `N#Cc1cccc(-c2nc3c(Nc4ccccc4)ncnc3[nH]2)c1`, the figures for the Activity in [1] and in assay [2] were 63% and 2%, respectively.

For the compound `COc1ccc(-c2nc3ncnc(NCc4ccccc4)c3n2C)cc1`, the Activity in assay [1] came out at 102%.

Regarding `O=C(Nc1ncnc2[nH]c(-c3ccc4ccccc4c3)nc12)c1ccccc1`, the Activity was 100% in assay [1] and 83% in assay [2].

Take `c1cncc(-c2nc3c(N4CCCC4)ncnc3[nH]2)c1`: the Activity in assay [1] is 100%.

Take `Cn1c(-c2cccc(F)c2)nc2c(N3CCCC3)ncnc21`: the Activity in [1] amounted to 100%.

As for `Cn1c(-c2ccc([N+](=O)[O-])cc2)nc2ncnc(N3CCCC3)c21`, the Activity in assay [1] was 101%.

Turning to `COc1ccc(CNc2ncnc3nc(-c4cccc(F)c4)n(C)c23)cc1`, the Activity in assay [1] turned out to be 99%.

Turning to `COc1ccc(CNc2ncnc3[nH]c(-c4cccnc4)nc23)cc1`, the Activity in assay [1] amounted to 95%.

In the case of `CCCCC(=O)Nc1ncnc2[nH]c(-c3cccc(C#N)c3)nc12`, the Activity in [1] came to 101%; in assay [2] it was 34%.

As to `N#Cc1cccc(-c2nc3c(NC(=O)c4ccccc4)ncnc3[nH]2)c1`, the Activity in assay [1] came out at 102%; in assay [2], 69%.

With `CC(C)CC(=O)Nc1ncnc2[nH]c(-c3ccccc3)nc12`, the Activity in assay [1] came to 102%.

For `CCCCC(=O)Nc1ncnc2[nH]c(-c3ccccc3)nc12`, the Activity in assay [1] was 103%.

On to `CC(=O)Nc1ncnc2[nH]c(-c3cccc(C#N)c3)nc12`, for which the values for the Activity in assay [1] and in [2] were 103% and 79%, respectively.

For `COc1ccc(C(=O)Nc2ncnc3[nH]c(-c4cccnc4)nc23)cc1`, the Activity in [1] was found to be 107%; in assay [2], 43%.

Consider `CC(=O)Nc1ncnc2[nH]c(-c3ccccc3)nc12`, for which, in [1], the Activity amounted to 101%.

For the compound `Cn1c(-c2cccc(F)c2)nc2c(NCc3ccccc3)ncnc21`, the Activity in [1] was 96%.

In the case of `O=C(Nc1ncnc2[nH]c(/C=C/c3ccccc3)nc12)C1CC1`, the Activity in [1] is 100%; in assay [2], 55%.

On to `COc1ccc(CNc2ncnc3[nH]c(-c4ccccc4)nc23)cc1`, for which the Activity in assay [1] is 93%.

As to `CC(C)C(=O)Nc1ncnc2[nH]c(-c3ccccc3)nc12`, the Activity in assay [1] was determined as 99%.

For `C(=C\c1nc2c(NCCN3CCOCC3)ncnc2[nH]1)/c1ccccc1`, the results for the Activity in assay [1] and in [2] were 101% and 99%, respectively.

Turning to `O=C(Nc1ncnc2[nH]c(-c3cccnc3)nc12)c1ccccc1`, the Activity came to 102% in assay [1] and 61% in assay [2].

With `c1cncc(-c2nc3c(OCC4CCCCC4)ncnc3[nH]2)c1`, in assay [1], the Activity worked out at 101%.

With `N#Cc1cccc(-c2nc3ncnc(Nc4ccccc4)c3[nH]2)c1`, the IC50 in assay [3] turned out to be 26 nM.

Consider `COc1ccc(CNc2ncnc3c2nc(-c2ccccc2)n3C)cc1`, for which the Activity in assay [1] came out at 100%.

`CCCCC(=O)Nc1ncnc2[nH]c(-c3ccc4ccccc4c3)nc12`: in assay [3], the half-maximal inhibitory concentration (IC50) is over 20000 nM. For the same compound, the Activity in assay [1] worked out at 102%; in [2], 31%.

As for `C(=C\c1nc2c(NCc3cccnc3)ncnc2[nH]1)/c1ccccc1`, the Activity in [1] stood at 96%; in [2], 84%.

Compound `O=C(Nc1ncnc2[nH]c(-c3cccc(Cl)c3)nc12)C1CC1` yielded a half-inhibitory concentration (IC50) in [3] of 365 nM. Moreover, the Activity in assay [1] is 100%; in [2] it was 17%.

For `Cn1c(-c2ccc([N+](=O)[O-])cc2)nc2ncnc(NCc3ccccc3)c21`, the Activity in assay [1] is 101%.

On to `C(=C\c1nc2c(Nc3ccccc3)ncnc2[nH]1)/c1ccccc1`, for which the values for the Activity in [1] and in assay [2] were 100% and 58%, respectively.

Regarding `O=C(Nc1ncnc2[nH]c(-c3cccc(Cl)c3)nc12)c1ccccc1`, the results for the Activity in [1] and in [2] were 102% and 60%, respectively.

Turning to `O=C(Nc1ncnc2[nH]c(-c3ccc4ccccc4c3)nc12)C1CC1`, the Activity turned out to be 99.4% in assay [4]; 99.2% in assay [5]; 91.9% in assay [6]; 91.6% in assay [7]; 101% in [8]; 100% in assay [9]. Also, the Activity in assay [10] turned out to be 59.5%; in assay [1], 101%; in [11], 78.2%; in assay [12] it was 91.4%; in [13], 18.4%.

In the case of `Cn1c(-c2ccc(Cl)cc2)nc2ncnc(N3CCCC3)c21`, the Activity in assay [1] amounted to 97%.

`COc1ccc(C(=O)Nc2ncnc3[nH]c(-c4cccc(Cl)c4)nc23)cc1`: the Activity came out at 102% in [1] and 71% in [2].

With `c1cncc(-c2nc3c(OC4CCCC4)ncnc3[nH]2)c1`, the Activity worked out at 83% in assay [1] and 57% in assay [2].

Regarding `O=C(Nc1ncnc2[nH]c(/C=C/c3ccccc3)nc12)c1ccccc1`, the Activity stood at 104% in [1] and 47% in assay [2].

On to `CCCCC(=O)Nc1ncnc2[nH]c(/C=C/c3ccccc3)nc12`, for which the Activity in assay [1] turned out to be 103%; in [2], 55%.

Consider `COc1ccc(CNc2ncnc3nc(-c4ccc(Cl)cc4)n(C)c23)cc1`, for which the Activity in assay [1] came out at 105%.

On to `O=C(Nc1ncnc2[nH]c(-c3ccccc3)nc12)C1CC1`, for which the Activity in assay [1] was determined as 96%.

The compound `N#Cc1cccc(-c2nc3c(NC(=O)C4CC4)ncnc3[nH]2)c1` yielded an IC50 in [3] of 781 nM. In addition, the Activity in assay [1] was found to be 103%; in assay [2] it was 30%.

Turning to `COc1ccc(C(=O)Nc2ncnc3[nH]c(/C=C/c4ccccc4)nc23)cc1`, the values for the Activity in [1] and in [2] were 104% and 96%, respectively.

As for `O=C(Nc1ncnc2[nH]c(-c3ccccc3)nc12)c1ccccc1`, the Activity in assay [1] worked out at 102%; in [2], 67%.

With `O=C(Nc1ncnc2[nH]c(/C=C/c3ccccc3)nc12)c1cccc(Br)c1`, the Activity in assay [1] turned out to be 101%; in assay [2], 92%.

`COc1ccc(CNc2ncnc3c2nc(-c2cccc(F)c2)n3C)cc1`: in assay [1], the Activity amounted to 96%.

As to `CN[C@@H]1C[C@H]2O[C@@](C)([C@@H]1OC)n1c3ccccc3c3c4c(c5c6ccccc6n2c5c31)C(=O)NC4`, the Activity in assay [1] came to 98.4%.

As to `O=C(Nc1ncnc2[nH]c(-c3ccccc3)nc12)C1CCCCN1` (configuration not stated), the Activity in assay [1] was 67%.

Take `c1ccc(-c2nc3c(OC4CCCC4)ncnc3[nH]2)cc1`: the Activity in [1] was 54%.

As to `O=C(Nc1ncnc2[nH]c(-c3ccccc3)nc12)C1CCCN1` (configuration not stated), the Activity in assay [1] turned out to be 93%.

As for `c1ccc(-c2nc3c(NCc4cccnc4)ncnc3[nH]2)cc1`, the Activity in assay [1] amounted to 84%.

Turning to `CCCCC(=O)Nc1ncnc2nc(-c3cccc(C#N)c3)[nH]c12`, in [3], the 50% inhibitory concentration (IC50) was 1220 nM.

On to `O=C(Nc1ncnc2nc(-c3ccc4ccccc4c3)[nH]c12)C1CC1`, for which, in assay [3], the IC50 stood at 169 nM.

As for `Cn1c(-c2ccccc2)nc2c(N3CCCC3)ncnc21`, the Activity in assay [1] worked out at 100%.

Consider `CC(=O)Nc1ncnc2[nH]c(-c3ccc4ccccc4c3)nc12`, for which the Activity was found to be 98% in assay [1] and 49% in assay [2].

With `c1ccc(CNc2ncnc3[nH]c(-c4ccccc4)nc23)cc1`, the Activity in assay [1] came to 84%.

For the compound `c1cncc(CNc2ncnc3[nH]c(-c4cccnc4)nc23)c1`, the Activity in assay [1] was 102%.

In the case of `c1cncc(-c2nc3c(N4CCOCC4)ncnc3[nH]2)c1`, the Activity in assay [1] was 71%.
